# According to patent publication US5620864A, “Acceptor for fucosyl transferase” (Health Research, Inc., priority 1992, dated 1997):
# “And” between values parts separate entries of the source, which are not always exact repeats. Identical values can stand only once.
# Experiments:
# [1] = target: T1, serum α1,3-L-fucosyltransferase (Homo sapiens, UniProt P51993); test: Assay of α1,3-fucosyltransferase with various synthetic acceptors, ovarian cancer sera as enzyme source; assay type: biochemical; settings: for [14C] Fucose Incorporated (CPM): acceptor 0.3 mM, 37° C. 18 h
# T1 construct: Sera were collected from healthy females and ovarian cancer patients; from tissue; host or cells: blood serum of ovarian cancer patients and healthy females
# T1 sequence (P51993 35-359 limits assumed): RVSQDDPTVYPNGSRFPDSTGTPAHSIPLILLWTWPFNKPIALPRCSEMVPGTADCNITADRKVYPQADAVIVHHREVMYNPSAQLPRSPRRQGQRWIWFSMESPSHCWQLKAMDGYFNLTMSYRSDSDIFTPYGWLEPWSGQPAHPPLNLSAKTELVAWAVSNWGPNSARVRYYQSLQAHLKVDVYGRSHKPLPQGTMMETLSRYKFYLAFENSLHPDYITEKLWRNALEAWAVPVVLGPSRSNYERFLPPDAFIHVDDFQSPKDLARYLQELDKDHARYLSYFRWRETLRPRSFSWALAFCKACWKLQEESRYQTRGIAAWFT
# Method: (§1) Sera were collected from healthy females and ovarian cancer patients admitted to Roswell Park Cancer Institute in Buffalo, N.Y., USA. Ovarian tumor tissues were obtained during surgical procedures from patients with ovarian cancer. Both sera and tissues were stored frozen at -70° C. until use.
# (§2) An incubation mixture contained 50 mM HEPES-NaOH, pH 7.5, 5 mM MnC12, 7 mM ATP, 3 mM NaN3, the acceptor 0.3 mM (for serum enzyme) or 3.0 mM (for tumor enzyme), 0.125 μCi of GDP-[U-^14 C] Fuc (Sp. Act. 216 mCi/mmol) and enzyme in a total volume of 0.10 ml; the control incubation mixture had everything except the acceptor. At the end of incubation at 37° C. for 18 h, the mixture was diluted with 1 ml water and passed through Dowex-1-C1 column (1 ml in a Pasteur pipet). The column was washed twice with 1 ml water; the breakthrough and wash, which contained the [^14 C] fucosylated neutral acceptor, were collected together in a scintillation vial and counted for radioactivity using the scintillation coctail 3a70 (Research Products International, Mount Prospects, Ill.) and Beckman LS9000. The Dowex column was then eluted successively with 3 ml each of 0.1M and 0.2M NaCl; these eluates which contained the [^14 C] fucosylated sulfated acceptors, were counted for radioactivity as before. Corrections were made by subtracting the radioactivity in the water and NaCl eluates of the control incubation mixture from the corresponding test fractions. The duplicate runs of samples gave almost identical values, the difference being <5%.
# The activity of serum α1,3-fucosyltransferase was measured with the specific substrate 2'-methyl LacNAc and compared with the ability of several other synthetic substrates to act as an acceptor of fucose.
# When the structure of the acceptor 2'-methyl LacNAc was modified by replacing the methyl group with sulfate group in C-2', 3', 6' or 6 position and tested their ability to act as the acceptor of fucose, the following novel findings emerged. […] The β-benzyl glycoside of 3' sulfo LacNAc was quite active (168.4%) but less than the parent compound.
# [2] = target: T1, serum α1,3-L-fucosyltransferase; test: Detection of serum α1,3-L-fucosyltransferase in six ovarian cancer sera and one normal serum; assay type: biochemical; settings: for percentage of the ratio between the CPM obtained for cancer serum and normal serum: acceptor 0.30 mM; for α1,3 fucosyltransferase activity of the cancer sera as compared to the normal serum: range over six ovarian cancer sera, acceptor 0.3 mM
# Method: as §1, §2
# The superiority of 3'-sulfo LacNAc over 2'-methyl LacNAc as the substrate for measuring serum α1,3 fucosyltransferase was tested in three different ways. First, the incubation mixtures in duplicate contained 0.3 mM 3'-sulfo LacNAc and varying amounts of 2'-methyl LacNAc (0 to 7.5 mM); the incorporation of [^14 C] fucose by the serum enzyme into both substrates was measured (Table III). The incorporation of [^14 C] fucose into 3'-sulfo LacNAc decreased and into 2'-methyl LacNAc increased with the increase in the concentration of the latter. […] 25 fold less than 2' methyl LacNAc. Secondly, the incubation mixtures in duplicate contained 3.0 mM 2'-methyl LacNAc and varying amounts of 3'-sulfo LacNAc (0 to 0.75 mM); the incorporation of [^14 C] fucose by the same serum enzyme into both substrates was measured (Table III). The [^14 C] fucose incorporation into 2'-methyl LacNAc decreased and into 3'-sulfo LacNAc increased by increasing the concentration of the latter. […] Thirdly, both 2'-methyl LacNAc and 3'-sulfo LacNAc at 0.3 mM concentration were incubated separately in duplicates with six ovarian cancer sera and one normal serum; the incorporation of [^14 C] fucose into these acceptors were quantitated (Table IV). The [^14 C] fucose incorporation into 3'-sulfo LacNAc was consistently higher (4-5 fold) than that into 2'-methyl LacNAc, including the assay of the normal serum. […] These values indicate that 3'-sulfo LacNAc is a very high affinity acceptor for α1,3 fucosyltransferase. The [^14 C] fucosylated product arising from 3'-sulfo LacNAc has been tentatively identified as 3'-sulfo, 3-fucosyl LacNAc by comparing strictly its mobility on paper with the synthetic authentic compound 3'-sulfo, 3-fucosyl LacNAc (see FIG. 5).
[14C] Fucose Incorporated (CPM) [1],Incorporation of [14C] Fucose (CPM) into the Acceptor (0.30 mM) ([2]; Normal Serum),Incorporation of [14C] Fucose (CPM) into the Acceptor (0.30 mM) ([2]; Ovarian Cancer Serum 1),percentage of the ratio between the CPM obtained for cancer serum and normal serum ([2]; Ovarian Cancer Serum 1),Incorporation of [14C] Fucose (CPM) into the Acceptor (0.30 mM) ([2]; Ovarian Cancer Serum 2),percentage of the ratio between the CPM obtained for cancer serum and normal serum ([2]; Ovarian Cancer Serum 2),Incorporation of [14C] Fucose (CPM) into the Acceptor (0.30 mM) ([2]; Ovarian Cancer Serum 3),percentage of the ratio between the CPM obtained for cancer serum and normal serum ([2]; Ovarian Cancer Serum 3),Incorporation of [14C] Fucose (CPM) into the Acceptor (0.30 mM) ([2]; Ovarian Cancer Serum 4),percentage of the ratio between the CPM obtained for cancer serum and normal serum ([2]; Ovarian Cancer Serum 4),Incorporation of [14C] Fucose (CPM) into the Acceptor (0.30 mM) ([2]; Ovarian Cancer Serum 5),percentage of the ratio between the CPM obtained for cancer serum and normal serum ([2]; Ovarian Cancer Serum 5),Incorporation of [14C] Fucose (CPM) into the Acceptor (0.30 mM) ([2]; Ovarian Cancer Serum 6),percentage of the ratio between the CPM obtained for cancer serum and normal serum ([2]; Ovarian Cancer Serum 6),"α1,3 fucosyltransferase activity of the cancer sera as compared to the normal serum [2]",Structure (SMILES),other results
5894 CPM,1543 CPM,7310 CPM,474%,9816 CPM,636%,5261 CPM,341%,5480 CPM,355%,3088 CPM,200%,5483 CPM,355%,200%-636%,"CC(=O)N[C@H]1C(O)O[C@H](CO)[C@@H](O[C@@H]2O[C@H](CO)[C@H](O)[C@H](OS(=O)(=O)O)[C@H]2O)[C@@H]1O (stereo partly drawn) [3'-Sulfo-LacNAc, SODIUM β-D-GALACTOPYRANOSYL 3-SULFATE-(1→4)-2-ACETAMIDO-2-DEOXY-D-GLUCOPYRANOSE]","Relative Percent ([1]; 2'-methyl LacNAc = 100): 340.8%; Relative Percent ([1]; 2'-methyl LacNAc = 100, listed as 3'-Sulfo LacNAc): 340.8%; Relative Percent ([1]; 2'-methyl LacNAc = 100, listed as 3'-sulfo LacNAc): 340.8%; Relative Percent ([1]; 2'-methyl LacNAc = 100, listed as 3'-sulfo-LacNAc): 340%; Ratio B/A (CPM into 3'-Sulfo LacNAc / CPM into 2'-Methyl LacNAc) ([2]; Normal Serum): 3.89; Ratio B/A (CPM into 3'-Sulfo LacNAc / CPM into 2'-Methyl LacNAc) ([2]; Ovarian Cancer Serum 1): 5.52; Ratio B/A (CPM into 3'-Sulfo LacNAc / CPM into 2'-Methyl LacNAc) ([2]; Ovarian Cancer Serum 2): 6.69; Ratio B/A (CPM into 3'-Sulfo LacNAc / CPM into 2'-Methyl LacNAc) ([2]; Ovarian Cancer Serum 3): 3.87; Ratio B/A (CPM into 3'-Sulfo LacNAc / CPM into 2'-Methyl LacNAc) ([2]; Ovarian Cancer Serum 4): 4.06; Ratio B/A (CPM into 3'-Sulfo LacNAc / CPM into 2'-Methyl LacNAc) ([2]; Ovarian Cancer Serum 5): 4.42; Ratio B/A (CPM into 3'-Sulfo LacNAc / CPM into 2'-Methyl LacNAc) ([2]; Ovarian Cancer Serum 6): 5.62; sensitivity / [14C] fucose incorporation relative to 2'-methyl LacNAc ([2]; blood sera, acceptors 0.3 mM): 3 to 5 fold and 4-5 fold"
1730 CPM,397 CPM,1325 CPM,334%,1724 CPM,434%,1359 CPM,342%,1347 CPM,339%,699 CPM,176%,975 CPM,246%,176%-434%,CO[C@H]1[C@H](O[C@H]2[C@H](O)[C@@H](NC(C)=O)C(O)O[C@@H]2CO)O[C@H](CO)[C@H](O)[C@@H]1O (stereo partly drawn) [2'-methyl LacNAc],–
